Test results from patent US6346544B2, “Desmethyl tocopherols for protecting cardiovascular tissue” (Oklahoma Medical Research Foundation, priority 2000, dated 2002).

Key:
[1] = plasma concentrations of tocopherols and 5-NO2-γ-tocopherol in volunteers; format: in vivo, human; conditions: mean ± SEM
Source text: Smoking is recognized as a major contributing factor to heart disease and γ-T reportedly decreases more than α-T in smokers. Hypertension is also a strong risk factor for heart disease. […] Seven subjects indicated a chronic hypertensive condition. As outlined in Table I, γ-tocopherol tended to decrease in hypertensive subjects while nitration products tended to increase in both smokers and hypertensive subjects. This was the trend regardless of whether the tocopherol concentrations were normalized to plasma triglycerides (Table I).

αKGDH [2] = assay: αKGDH protection against SIN-1 nitrative stress in isolated mitochondria in vitro; format: biochemical, rat
Method: FIG. 3 is a graph showing rat brain mitochondria exposed to 0.4 mM SIN-1 for 1 H after addition of tocopherol. (•)α-tocopherol; (▪)γ-tocopherol. The scale bars labeled [α]norm and [Y]norm indicate the normal endogenous quantities of α-tocopherol and γ-tocopherol, respectively, in human brain.
αKGDH is a rate-limiting enzyme of mitochondrial energy production which is diminished in conditions of vascular ischemia (53-58); augmentation of the enzyme with α-ketoglutarate has been found beneficial and α-ketoglutarate is now included as a component in cardioplegia fluid to improve recovery after heart surgery (59). We undertook to determine whether γT protects αKGDH against nitrative stress in vitro. Mitochondria were isolated from adult rat brain then sonicated briefly in the presence of either αT or γT, or an ethanol vehicle. Mitochondria were then exposed to SIN-1, which generates NO and superoxide simultaneously at a known rate (7). Combination of NO and superoxide yields ONOO^−. in situ (discussed above).

αKGDH [3] = assay: heart αKGDH activity after tocopherol supplementation, with or without LPS challenge; format: in vivo, rat
Method: Rats were injected with 15 mg of tocopherol over the first 1 month of life; specific groups were then challenged with a septic dose of LPS and heart αKGDH activity was assayed 24 H later. *p<0.1 relative to vehicle; †p<0.05 relative to vehicle. N=5/group.
Rat pups were injected intraperitoneally (I.P.) with αT or γT in an olive oil vehicle every other day for 30 days beginning 2 days after birth; control animals received vehicle only. […] A total of 15 mg tocopherol was delivered to each animal over the 30 day period; animal weight at the end of the period was approximately 90 g for all three groups. One half of each animal group was injected with a septic dose of LPS (2.5 mg/kg, I.P). After 24 H, animals were killed and organs collected. αKGDH was assayed in heart tissue and tocopherols were measured by HPLC-ECD/PDA.

[4] = rat, in vivo, 30 days
Method: Rat pups were injected intraperitoneally (I.P.) with αT or γT in an olive oil vehicle every other day for 30 days beginning 2 days after birth; control animals received vehicle only. Olive oil was chosen as a vehicle because of the low tocopherol content in this particular vegetable oil. […] One half of each animal group was injected with a septic dose of LPS (2.5 mg/kg, I.P). After 24 H, animals were killed and organs collected. αKGDH was assayed in heart tissue and tocopherols were measured by HPLC-ECD/PDA.

platelets = assay: platelet aggregation in vitro (PRP, aggregometer); format: cell-based, human; conditions: for Platelet Aggregation (% maximum): 500 μM α-tocopherol or 50 μM γ-tocopherol, 1 H preincubation
Method: […] inhibits platelet aggregation in vitro and in vivo, apparently through antagonism of protein kinase C (PKC) (60-63). Concentrations of αT necessary to inhibit aggregation in vitro are on the order of 500 μM (60-63), or approximately 10-fold higher than achieved in vivo. The concentration difference between in vitro and in vivo efficacy has been rationalized on the basis of incomplete tocopherol incorporation into membranes during in vitro incubation (63). Nonetheless, subjects supplemented with oral αT have diminished platelet aggregation (63). We therefore sought to investigate the ability of γ-tocopherol to inhibit platelet aggregation. PRP was obtained from two volunteers. Platelets were stimulated to aggregate with ADP, thrombin receptor activating peptide (TRAP) or the PKC agonist phorbol myristyl acetate (PMA) and aggregation was measured using a 4-channel clinical aggregometer. Specific platelet samples were preincubated with vehicle, αT, γT or 5-NO2-γ-tocopherol for 1 H prior to stimulation. Tocopherol concentrations were set at 10-fold excess to average PRP levels based on the precedent of previous in vitro aggregation experiments that used αT as an inhibitor (60-63).

[5] = human plasma γT relative to αT; format: in vivo
Source text: Chemistry of tocopherol reaction with oxidizing agents. γ-Tocopherol is a natural product (a desmethyl tocopherol) of plant origin, present in many vegetable oils, especially soybean oil (1-2). γ-Tocopherol is normally taken into the body through consumption of foodstuffs. Human plasma γT concentration is variously reported as 5-30% of αT (3). The γTαT ratio varies markedly among individuals; plasma γT/αT proportionalities may be as low as 0.2% and as high as 30% (inventors' observations). Both αT and γT are absorbed equally well by the gut, but γT is packaged into lipoproteins less effectively than αT (4). For this reason, αT supplementation decreases systemic γT concentration (3-4).
γ-Tocopherol in human biology and cardiovascular disease. Relative to αT, a dearth of epidemiological data exists for γT. Human plasma γT concentration is variously reported as between 5-30% that of αT (41). In platelet-poor plasma, we find that 7% is very close to the correct value in young healthy subjects. The γT/αT ratio varies markedly among individuals; we have observed plasma γT/αT proportionalities as low as 0.2% and as high as 30%. γT is now a major tocopherol in the US diet, due to the high intake of soybean and vegetable oils that are abundant sources of γT (40). Both αT and γT are absorbed equally well by the gut, but γT is packaged into lipoproteins less effectively than αT (39). For this reason, αT supplementation decreases systemic γT concentration (41-42). δ-Tocopherol, β-tocopherol and tocol (other demethylated tocopherol homologs) exist in human plasma at approximately 1:10 ratios relative to γT (41). Detailed demographic data regarding plasma and tissue levels of desmethylated tocopherols and their oxidation products have never been published. While extensive data has been collected on α-tocopherol as a possibly beneficial molecule in cardiovascular disease, very little data has been collected on γT.

[6] = test system: ECV304 human endothelial cells; conditions: 10 μM α-T, 10 μM γ-T or 5 μM of each; 19 hours preincubation; 5 mM SIN-1; 24 hours
Method: Cultured ECV304 human endothelial cells were exposed to SIN-1 in the presence of 10 μM α-T, 10 μM γ-T or 5 μM of each (FIG. 5). Tocopherols were incubated with the cells for 19 hours prior to addition of SIN-1. Viability was assayed 24 hours later using a standard tetrazolium (MTT) reduction assay.

C3H/10T1/2 fibroblasts = conditions: methylcholanthrene-treated C3H/10T1/2 fibroblasts; cited from earlier work
[7] = liposomes exposed to ONOO−; cited from earlier work
[8] = tocopherol-depleted rats fed two weeks after iron-dextran; cited from earlier work
[9] = cited from earlier work
[10] = 100 mg/kg/day, 10 days, cited from earlier work
[11] = variously reported; cited from earlier work
[12] = rat brain mitochondria, 400 μM SIN-1, one hour

## Cc1c(C)c2c(c([N+](=O)[O-])c1O)CCC(C)(CCCC(C)CCCC(C)CCCC(C)C)O2 (stereo not drawn) [5-NO2-γ-tocopherol, 5-nitro-γ-tocopherol]
[1]; hypertensives, N = 7
  plasma concentration: 20.0 ± 3.7 ng/mL plasma
  plasma concentration normalized to triglyceride: 34.9 ± 10.9 ng/mg triglyceride
[1]; population, N = 54
  plasma concentration: 11.3 ± 1.6 ng/mL plasma
  plasma concentration normalized to triglyceride: 14.0 ± 2.5 ng/mg triglyceride
[1]; smokers, N = 7
  plasma concentration: 20.0 ± 3.3 ng/mL plasma
  plasma concentration normalized to triglyceride: 23.5 ± 7.2 ng/mg triglyceride

## Nc1c[n+](N2CCOCC2)no1 [SIN-1, reference compound]
αKGDH [2]; 400 μM SIN-1, one hour, rat brain mitochondria
  diminution of αKGDH activity: approximately 50%

## Cc1c(O)cc2c(c1C)O[C@](C)(CCC[C@H](C)CCC[C@H](C)CCCC(C)C)CC2 [γ-tocopherol]
αKGDH [2]; 400 μM SIN-1, one hour
  concentration offering as much αKGDH protection as 1-10 μM αT: 50 to 100 nM
αKGDH [2]; all concentrations tested
  αKGDH protection in side-by-side comparison: more protective than αT
αKGDH [2]; concentrations near 100 nM, 400 μM SIN-1
  αKGDH protection relative to corresponding concentration of αT: approximately 5 times
αKGDH [2]; [12]
  maximal αKGDH protection relative to αT: approximately 2.5 times
  tocopherol concentration of maximal αKGDH protection: 1 µM
αKGDH [3]; LPS 2.5 mg/kg I.P., 24 H
  heart αKGDH activity after LPS challenge, ranking among groups: highest heart αKGDH activity
αKGDH [3]; animals not subjected to LPS stress, 15 mg tocopherol I.P. over 30 days
  increase of mean heart αKGDH activity: 40%
[4]
  heart tissue tocopherol concentration, controls: 1.8±0.4 ng/mg protein
[1]; hypertensives, N = 7
  plasma concentration: 0.463 ± 0.165 μg/mL plasma
  plasma concentration normalized to triglyceride: 0.606 ± 0.153 μg/mg triglyceride
[1]; population, N = 54
  plasma concentration: 0.713 ± 0.067 μg/mL plasma
  plasma concentration normalized to triglyceride: 0.813 ± 0.088 μg/mg triglyceride
[1]; smokers, N = 7
  plasma concentration: 0.680 ± 0.153 μg/mL plasma
  plasma concentration normalized to triglyceride: 0.810 ± 0.213 μg/mg triglyceride
platelets; ADP 20 μM, Subject 1
  Platelet Aggregation (% maximum): 117 % maximum
platelets; ADP 20 μM, Subject 2
  Platelet Aggregation (% maximum): 90 % maximum
platelets; PMA 200 nM, Subject 1
  Platelet Aggregation (% maximum): 57 % maximum
platelets; PMA 200 nM, Subject 2
  Platelet Aggregation (% maximum): 29 % maximum
platelets; TRAP 20 μM, Subject 1
  Platelet Aggregation (% maximum): 73 % maximum
platelets; TRAP 20 μM, Subject 2
  Platelet Aggregation (% maximum): 88 % maximum
platelets; TRAP or PMA as agonist
  ability to inhibit PKC-linked platelet aggregation: similarly efficacious to αT
[5]; inventors' observations
  highest observed plasma γT/αT proportionality: 30%
  lowest observed plasma γT/αT proportionality: 0.2%
[5]; platelet-poor plasma, young healthy subjects
  plasma γT concentration as % of αT: ~7%
[6]
  effect on SIN-1 toxicity (MTT viability): promoted viability somewhat
C3H/10T1/2 fibroblasts
  effectiveness at inhibiting neoplastic transformation relative to αT: 4 fold
[7]
  effectiveness at inhibiting lipid hydroperoxide formation relative to αT: twice as effective
[8]
  effectiveness at inhibiting systemic lipid oxidation relative to αT: approximately 35%
[9]; 100 mg/kg/day for 10 days, 29% FeCl3 patch
  delay/increase of time to occlusive thrombus: 65%
[9]; 100 mg/kg/day for 10 days
  inhibition of platelet aggregation kinetics, efficacy relative to αT supplementation: 2 fold
[9]; rat, in vivo
  potency relative to αT at inhibition of thrombogenic correlates, in reference to plasma tocopherol concentrations: 20-30 times
  superoxide dismutase activity in the aortas compared to αT treated group: increased significantly
[10]; own supplementation
  increase of plasma level above baseline: 6 fold
[10]; γT supplemented rats
  plasma γT concentration as % of the αT concentration: ≤ 10%
[11]
  human plasma γT concentration as % of αT: 5-30%
